The term EC50 denotes the concentration at which the effect is half-maximal. Low values mean a more potent agent, high ones a less potent agent.

The source of these data is patent publication US20140045823A1 (Neurocrine Biosciences, Inc., priority 2012, published 2014).

The assay addresses T1, human GPR119 (Homo sapiens, UniProt Q8TDV5).
T1 construct: expression vector for human GPR119 cDNA (Acc. No. NP_848566); expressed in transfected cells; Min-6/hGPR119
T1 sequence (Q8TDV5 1-335): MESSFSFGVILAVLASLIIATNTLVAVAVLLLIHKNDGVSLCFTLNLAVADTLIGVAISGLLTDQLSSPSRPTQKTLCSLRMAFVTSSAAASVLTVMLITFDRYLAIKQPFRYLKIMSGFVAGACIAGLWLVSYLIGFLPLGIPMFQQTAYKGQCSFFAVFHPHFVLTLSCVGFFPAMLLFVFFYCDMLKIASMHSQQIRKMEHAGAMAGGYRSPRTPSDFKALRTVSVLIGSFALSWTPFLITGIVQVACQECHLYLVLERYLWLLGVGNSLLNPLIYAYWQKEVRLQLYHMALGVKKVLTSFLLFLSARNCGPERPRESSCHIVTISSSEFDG
Description: AlphaScreen cAMP assay in MIN6 cells stably transfected with human GPR119. The class given is cell-based. Conditions: Min-6/hGPR119 cells, 45 min at room temperature. The protocol:
The compounds of formula I according to the invention modulate the activity of the G-protein-coupled receptor GPR119. The effect of the compounds on the activation of GPR119 and on the stimulation of intracellular cAMP concentration is determined using the AlphaScreen cAMP Assay Kit (Cat. No. #6760625R) made by PerkinElmer.
MIN6 cells [Miyazaki J et al. Endocrinology. 1990 July; 127(1):126-32] are stably transfected with an expression vector for human GPR119 cDNA (Acc. No. NP_848566). Min-6/hGPR119 cells are cultured in DMEM, 10% FBS, 50 μM β-mercaptoethanol, 0.3 mg/mL Geniticin, 2 mM GlutaMAX at 37° C. 5% CO2. For the assay, the cells are seeded in Optiplates (white, 384-well, 160 W—barcoded, TC, sterile with lid, Cat. No. #6007688 (Perkin Elmer); 10000 cells/well; 50 μl). The plates covered with lids are then incubated for 24 hours at 37° C./5% CO2. After the medium is aspirated from the wells completely, 10 μl of the test compound are added, the compounds are diluted using stimulating buffer (140 mM NaCl, 3.6 mM KCl, 0.5 mM NaH2PO4, 0.5 mM MgSO4, 1.5 mM CaCl2, 10 mM Hepes, 5 mM NaHCO3; pH 7.4. 0.5 mM IBMX and 0.1% BSA, the final DMSO concentration is 1%). After 45 minutes incubation at room temperature (approx. 20° C.), the cAMP concentrations are determined using the AlphaScreen cAMP Assay Kit (Cat. No. #6760625R from PerkinElmer).
A general note: Bead proximity is the source of the signal in Alpha formats.
`CC(C)(C)OC(=O)N1CCC(N(C(=O)c2cnc(-c3ccc(C(=O)NC[C@H]4CCCC[C@H]4O)c(F)c3)nc2)C2CC2)CC1` (stereo in doubt) [Example 168, 4-[Cyclopropyl-(2-{3-fluoro-4-[(2-hydroxy-cyclohexylmethyl)-carbamoyl]-phenyl}-pyrimidine-5-carbonyl)-amino]-piperidine-1-carboxylic acid tert-butyl ester] came in with an EC50 of 261 nM.

Regarding `CC(C)(C)OC(=O)N1CCC(N(C(=O)c2ccc(-c3ccc(S(C)(=O)=O)cc3)nc2)C2CC2)CC1` [Example 1, 4-{Cyclopropyl-[6-(4-methanesulfonyl-phenyl)-pyridine-3-carbonyl]-amino}-piperidine-1-carboxylic acid tert-butyl ester], the EC50 turned out to be 82 nM.

For `CC(C)OC(=O)N1CCC(N(C(=O)c2ccc(-c3ccc(S(C)(=O)=O)cc3)nc2)C2CC2)CC1` [Example 2, 4-{Cyclopropyl-[6-(4-methanesulfonyl-phenyl)-pyridine-3-carbonyl]-amino}-piperidine-1-carboxylic acid isopropyl ester], the midpoint of the response, the EC50, lay at 213 nM.

`CC(C)(C)OC(=O)N1CCC(N(C(=O)c2ccc(-c3cn[nH]c3)nc2)C2CC2)CC1` [Example 3, 4-{Cyclopropyl-[6-(1H-pyrazol-4-yl)-pyridine-3-carbonyl]-amino}-piperidine-1-carboxylic acid tert-butyl ester] yielded an EC50 of 204 nM.

`Cn1cc(-c2ccc(C(=O)N(C3CC3)C3CCN(C(=O)OC(C)(C)C)CC3)cn2)ccc1=O` [Example 4, 4-[Cyclopropyl-(1′-methyl-6′-oxo-1′,6′-dihydro-[2,3′]bipyridinyl-5-carbonyl)-amino]-piperidine-1-carboxylic acid tert-butyl ester] came in with an EC50 of 1460 nM.

With `CC(C)(C)OC(=O)N1CCC(N(C(=O)c2ccc(-c3cnco3)nc2)C2CC2)CC1` [Example 5, 4-[Cyclopropyl-(6-oxazol-5-yl-pyridine-3-carbonyl)-amino]-piperidine-1-carboxylic acid tert-butyl ester], the 50% effective concentration (EC50) is 62 nM.

In turn, `CC(C)(C)OC(=O)N1CCC(N(C(=O)c2ccc(-c3cnco3)nn2)C2CC2)CC1` [Example 6, 4-[Cyclopropyl-(6-oxazol-5-yl-pyridazine-3-carbonyl)-amino]-piperidine-1-carboxylic acid tert-butyl ester] registered an EC50 of 1300 nM.

The molecule `CC(C)(C)OC(=O)N1CCC(N(C(=O)c2ncc(-c3cnco3)cn2)C2CC2)CC1` [Example 7, 4-[Cyclopropyl-(5-oxazol-5-yl-pyrimidine-2-carbonyl)-amino]-piperidine-1-carboxylic acid tert-butyl ester] came in with an EC50 of 1200 nM.

For the molecule `CC(C)(C)OC(=O)N1CCC(N(C(=O)c2ccc(-c3cnco3)cn2)C2CC2)CC1` [Example 8, 4-[Cyclopropyl-(5-oxazol-5-yl-pyridine-2-carbonyl)-amino]-piperidine-1-carboxylic acid tert-butyl ester], the EC50 was determined as 120 nM.

`CC(C)(C)OC(=O)N1CCC(N(C(=O)c2cnc(-c3cnco3)nc2)C2CC2)CC1` [Example 9, 4-[Cyclopropyl-(2-oxazol-5-yl-pyrimidine-5-carbonyl)-amino]-piperidine-1-carboxylic acid tert-butyl ester] showed an EC50 of 224 nM.

Molecule `Cc1cc(C(=O)N(C2CC2)C2CCN(C(=O)OC(C)(C)C)CC2)cnc1-c1cnco1` [Example 10, 4-[Cyclopropyl-(5-methyl-6-oxazol-5-yl-pyridine-3-carbonyl)-amino]-piperidine-1-carboxylic acid tert-butyl ester] gave an EC50 of 748 nM.

As to `Cc1noc(C)c1-c1ccc(C(=O)N(C2CC2)C2CCN(C(=O)OC(C)(C)C)CC2)cn1` [Example 11, 4-{Cyclopropyl-[6-(3,5-dimethyl-isoxazol-4-yl)-pyridine-3-carbonyl]-amino}-piperidine-1-carboxylic acid tert-butyl ester], the EC50 was determined as 136 nM.

Take `CC(C)(C)OC(=O)N1CCC(N(C(=O)c2cnc(-c3cnco3)cn2)C2CC2)CC1` [Example 12, 4-[Cyclopropyl-(5-oxazol-5-yl-pyrazine-2-carbonyl)-amino]-piperidine-1-carboxylic acid tert-butyl ester]: the EC50 was determined as 72 nM.

In the case of `Cc1ncoc1-c1ccc(C(=O)N(C2CC2)C2CCN(C(=O)OC(C)(C)C)CC2)cn1` [Example 13, 4-{Cyclopropyl-[6-(4-methyl-oxazol-5-yl)-pyridine-3-carbonyl]amino}-piperidine-1-carboxylic acid tert-butyl ester], it took 132 nM to reach a half-maximal effect (EC50).

`CC(C)(C)OC(=O)N1CCC(N(C(=O)c2cnc(-c3cnco3)c(F)c2)C2CC2)CC1` [Example 14, 4-[Cyclopropyl-(5-fluoro-6-oxazol-5-yl-pyridine-3-carbonyl)-amino]-piperidine-1-carboxylic acid tert-butyl ester] gave an EC50 of 145 nM.

In turn, `COC(=O)c1ccc(-n2cnc(C(=O)N(C3CC3)C3CCN(C(=O)OC(C)(C)C)CC3)c2)c(F)c1` [Example 15, 4-{Cyclopropyl-[1-(2-fluoro-4-methoxycarbonyl-phenyl)-1H-imidazole-4-carbonyl]-amino}-piperidine-1-carboxylic acid tert-butyl ester] registered an EC50 of 157 nM.

As for `CC(C)(C)OC(=O)N1CCC(N(C(=O)c2cn(-c3ccc(C#N)cc3F)cn2)C2CC2)CC1` [Example 16, 4-{[1-(4-Cyano-2-fluoro-phenyl)-1H-imidazole-4-carbonyl]-cyclopropyl-amino}-piperidine-1-carboxylic acid tert-butyl ester], it took 66 nM to reach a half-maximal effect (EC50).

In turn, `CC(C)(C)OC(=O)N1CCC(N(C(=O)c2cn(-c3ccc(S(C)(=O)=O)cc3)cn2)C2CC2)CC1` [Example 17, 4-{Cyclopropyl-[1-(4-methanesulfonyl-phenyl)-1H-imidazole-4-carbonyl]-amino}-piperidine-1-carboxylic acid tert-butyl ester] gave an EC50 of 680 nM.

Take `CC(C)(C)OC(=O)N1CCC(N(C(=O)c2noc(-c3ccc(C#N)cc3F)n2)C2CC2)CC1` [Example 18, 4-{[5-(4-Cyano-2-fluoro-phenyl)-[1,2,4]oxadiazole-3-carbonyl]-cyclopropyl-amino}-piperidine-1-carboxylic acid tert-butyl ester]: a half-maximal effect (EC50) was put at 5 nM.

`CC(C)(C)OC(=O)N1CCC(N(C(=O)c2noc(-c3ccc(S(C)(=O)=O)cc3F)n2)C2CC2)CC1` [Example 19, 4-{Cyclopropyl-[5-(2-fluoro-4-methanesulfonyl-phenyl)-[1,2,4]oxadiazole-3-carbonyl]-amino}-piperidine-1-carboxylic acid tert-butyl ester] came in with an EC50 of 21 nM.

`CC(C)(C)OC(=O)N1CCC(N(C(=O)c2noc(-c3ccc(C#N)c(F)c3)n2)C2CC2)CC1` [Example 20, 4-{[5-(4-Cyano-3-fluoro-phenyl)-[1,2,4]oxadiazole-3-carbonyl]-cyclopropyl-amino}-piperidine-1-carboxylic acid tert-butyl ester] came in with an EC50 of 7 nM.

`CC(C)(C)OC(=O)N1CCC(N(C(=O)c2noc(-c3ccc(S(C)(=O)=O)c(F)c3)n2)C2CC2)CC1` [Example 21, 4-{Cyclopropyl-[5-(3-fluoro-4-methanesulfonyl-phenyl)-[1,2,4]oxadiazole-3-carbonyl]-amino}-piperidine-1-carboxylic acid tert-butyl ester] yielded an EC50 of 33 nM.

For the molecule `CC(C)(C)OC(=O)N1CCC(N(C(=O)c2nc(-c3ccc(Br)cc3F)no2)C2CC2)CC1` [Example 22, 4-{[3-(4-Bromo-2-fluoro-phenyl)-[1,2,4]oxadiazole-5-carbonyl]-cyclopropyl-amino}-piperidine-1-carboxylic acid tert-butyl ester], the midpoint of the response, the EC50, lay at 210 nM.

Take `CC(C)(C)OC(=O)N1CCC(N(C(=O)c2coc(-c3ccc(C#N)cc3F)n2)C2CC2)CC1` [Example 23, 4-{[2-(4-Cyano-2-fluoro-phenyl)-oxazole-4-carbonyl]-cyclopropyl-amino}-piperidine-1-carboxylic acid tert-butyl ester]: the EC50 stood at 18 nM.

With `CC(C)(C)OC(=O)N1CCC(N(C(=O)c2coc(-c3ccc(C#N)c(F)c3)n2)C2CC2)CC1` [Example 24, 4-{[2-(4-Cyano-3-fluoro-phenyl)-oxazole-4-carbonyl]-cyclopropyl-amino}-piperidine-1-carboxylic acid tert-butyl ester], the EC50 amounted to 42 nM.

Take `CC(C)(C)OC(=O)N1CCC(N(C(=O)c2coc(-c3ccc(S(C)(=O)=O)cc3F)n2)C2CC2)CC1` [Example 25]: the EC50 was found to be 97 nM.
